# Read-outs that look alike come from different tables or passages of the source.
# Columns and labels:
# UVR-induced hyperplasia [1] = test: Effect of topically applied Hsp90 inhibitors on UVR-induced hyperplasia (Table 3); for Effect on Hyperplasia, Mice 1 or Slide 1, 24 Hr. post UVR: key: +++ (positive effect); −−− (negative effect); −− (less negative); for Effect on Hyperplasia, Mice 2 or Slide 2, 24 Hr. post UVR: key: +++ (positive effect); −−− (negative effect); −− (less negative); for Effect on Hyperplasia, Mice 2 or Slide 2, 48 Hr. post UVR: key: +++ (positive effect); −−− (negative effect); −− (less negative); assay type: in vivo, SKH1 mice; design: Effect on Hyperplasia, Mice 2 or Slide 2, 24 Hr. post UVR / Effect on Hyperplasia, Mice 2 or Slide 2, 48 Hr. post UVR / Effect on Hyperplasia, Mice 1 or Slide 1, 24 Hr. post UVR / Effect on Hyperplasia, Mice 1 or Slide 1, 48 Hr. post UVR: key: +++ (positive effect); −−− (negative effect); −− (less negative); conditions: for Effect on Hyperplasia, Mice 2 or Slide 2, 24 Hr. post UVR / Effect on Hyperplasia, Mice 2 or Slide 2, 48 Hr. post UVR / Effect on Hyperplasia, Mice 1 or Slide 1, 24 Hr. post UVR / Effect on Hyperplasia, Mice 1 or Slide 1, 48 Hr. post UVR: SKH1 mice, topical; for Effect on Hyperplasia, Mice 2 or Slide 2, 24 Hr. post UVR: mouse 2, 24 Hr. post UVR; for Effect on Hyperplasia, Mice 2 or Slide 2, 48 Hr. post UVR: mouse 2, 48 Hr. post UVR; for Effect on Hyperplasia, Mice 1 or Slide 1, 24 Hr. post UVR: mouse 1, 24 Hr. post UVR; for Effect on Hyperplasia, Mice 1 or Slide 1, 48 Hr. post UVR: mouse 1, 48 Hr. post UVR
# PKCε, Hsp90β, Hsp70 = test: Expression levels in uninvolved skin at end of SCC experiment; assay type: in vivo, SKH-1 hairless mice; conditions: SKH hairless mice
# Experimental: (§1) The SKH-1 hairless mice (6-7 week old) were exposed to UVR. The UVR source was Kodacel-filtered FS-40 sun lamps (approximately 60% UVB and 40% UVA). Mice were exposed to UVR (1.8 kJ/m2) three times weekly (Monday, Wednesday and Friday). The mice in the vehicle group (n=18) received topical treatment of 200 μl vehicle (DMSO:acetone: 1:40 v/v) before and after each UVR exposures. […] Carcinomas were recorded grossly as downward-invading lesions, which were confirmed histologically. […] At the end of the experiment, mice were sacrificed. […] A part of the uninvolved dorsal skin was fixed for in 10% neutral-buffered formalin for histological examination. […] (D): A part of the uninvolved skin was also used to prepare total epidermal lysate to determine expression level of PKCε, Hsp90β, and Hsp70.
# (§2) 4. […] Initial tumor induction experiment was performed with SKH-1 hairless mice.
# UVR-induced SCC [2] = test: UVR-induced development of SCC in PKCε overexpressing transgenic FVB/N mice and wild-type littermates; assay type: in vivo
# Experimental: (§3) The PKCε-overexpressing transgenic (TG) and wildtype FVB/N mice (6-7 week old) were exposed to UVR. Mice were exposed to UVR (1.8 kJ/m2) three times weekly (Monday, Wednesday and Friday). The mice in the vehicle group received topical treatment of 200 μl vehicle (DMSO:acetone: 1:40 v/v) before and after UVR each exposure. […] Carcinomas were recorded grossly as downward-invading lesions, which were confirmed histologically. […] There were 11 mice in each group.
# (§4) SKH1 hairless mice were purchased from Charles River Laboratories (Wilmington, Mass.). PKCε transgenic mice were generated as described previously (Reddig et al., 2000). The UVR source was Kodacel-filtered FS-40 sunlamps (approximately 60% UV-B and 40% UV-A). Mice were exposed to UVR from a bank of six Kodacel-filtered sunlamps. UVR dose was routinely measured using UVX-radiometer.
# UVR-induced SCC [3] = test: UVR-induced development of SCC in SKH-1 hairless mice (tumor induction experiment); assay type: in vivo
# Experimental: as §1, §3, §4, §2
# [4] = cited from earlier work
# [5] = HPLC analysis of 17AAG in serum and mouse epidermis after topical application; assay type: in vivo, mice (SKH-1 hairless, FVB)
# Experimental: SKH hairless mice (6-7 weeks old) were exposed to UVR (1.8 kJ/m^2) three times weekly (Monday, Wednesday, and Friday). The mice in the vehicle group (n=3) received topical treatment of 200 μl vehicle (DMSO:acetone: 1:40 v/v) before and after UVR exposures. […] All mice were treated for 25 weeks and sacrificed at 1, 3, 6 and 24 hours following the last UVR exposure. (A) Blood samples were collected to analyze serum 17AAG by HPLC. […] Mice were sacrificed at 6 and 24 hours post-17AAG treatment. (B) Blood samples were collected for serum 17AAG analysis. (C) 17AAG level was also analyzed in the epidermal protein lysate. To prepare epidermal lysate, epidermis was scraped and homogenized in the lysis buffer. […] Each value is an average of duplicate samples. ND: Not detectable. Inset: Chemical structure of 17AAG.
# Dorsal areas of the mice (6-7 week old) were shaved and depilated one day before the treatment. […] Blood samples were collected to detect 17AAG in serum. To prepare epidermal lysate, epidermis was removed and homogenized with the lysis buffer. 17-AAG levels in the serum and mouse epidermis were analyzed by HPLC (Shin, et al., 2012).
# 1. Topically applied 17AAG is distributed both in epidermis and serum.
# Hsp90 = conditions: cited from earlier work
# [6] = tested on: MMP-2, MMP-9, Collagen IV, Hsp70; test: Skin expression of MMPs, collagen IV, Hsp70 and PCNA after UVR (Western blot); assay type: in vivo; conditions: SKH1 mice
# Experimental: Groups of SKH1 mice were exposed to UVR (2 kJ/m2) three times (Monday, Wednesday, Friday, and Monday) weekly for 6 and 12 weeks. […] Mice were sacrificed at 24 hours after the last UVR treatment. […] To determine morphological and biochemical alteration in skin, the two layers of skin (epidermis and dermis) were isolated separately for analysis of the indicated protein by the western blot analysis.
# Mouse skin was excised and scraped to remove subcutaneous fat. The epidermis was scraped off on an ice-cold glass plate, homogenized in lysis buffer [50 mmol/L HEPES, 150 mmol/L NaCl, 10% glycerol, 1% Triton X-100, 1.5 mmol/L MgCl2, 10 μg/m aprotinin, 10 μg/m leupeptin, 1 mmol/L phenylmethylsulfonyl fluoride (PMSF), 200 μmol/L Na3VO4, 200 μmol/L NaF, and 1 mmol/L EGTA (final pH 7.5)]. The homogenate was centrifuged at 14,000 g for 30 min at 4° C. Epidermal cell lysate proteins were fractionated on 10% Criterion™ pre-cast SDS-polyacrylamide gels (Bio-Rad Laboratories, Hercules, Calif.). The protein was transferred to 0.45 μm Hybond-P polyvinylidene difluoride (PVDF) transfer membrane (Amersham Life Sciences, Piscataway, N.J.). The membrane was then incubated with the indicated antibody followed by a horseradish peroxidase secondary antibody (Thermo Scientific), and the detection signal was developed with Amersham's enhanced chemiluminescence reagent and using FOTO/Analyst Luminary Work Station (Fotodyne Inc.). The Western blots were quantitated by densitometric analysis using Totallab® Nonlinear Dynamic Image analysis software (Nonlinear USA, Inc., Durham, N.C.).
# [7] = cited from earlier work; for bioavailability: literature
# [8] = tested on: PKCε, Stat3, pStat3Tyr705, pStat3Ser727, Akt, pAktser473; test: Epidermal protein expression levels after UVR (Western blot); assay type: in vivo, PKCε-overexpressing transgenic mice
# Experimental: PKCε-overexpressing transgenic mice (line 224) were exposed once to UVR (4 kJ/m2). […] Mice were sacrificed 24 hours post-UVR exposure. There were two mice per treatment point. Dorsal skin comprised excised, epidermal cell lysates prepared as described before (Aziz et al., 2007). […] PKCε-overexpressing transgenic mice (line 224) were exposed once to UVR (2 kJ/m2). […] Mice were sacrificed at 24 hours post-UVR exposure. There were three mice per treatment point. Dorsal skin comprised excised, epidermal cell lysates prepared as described before (Aziz et al., 2007). Pooled epidermal cell lysate was analyzed for PKCε expression level by western blot analysis (B). (C) Shown is the quantitation of the western blot (B).
# Mouse skin was excised and scraped to remove subcutaneous fat. The epidermis was scraped off on an ice-cold glass plate, homogenized in lysis buffer [50 mmol/L HEPES, 150 mmol/L NaCl, 10% glycerol, 1% Triton X-100, 1.5 mmol/L MgCl2, 10 μg/m aprotinin, 10 μg/m leupeptin, 1 mmol/L phenylmethylsulfonyl fluoride (PMSF), 200 μmol/L Na3VO4, 200 μmol/L NaF, and 1 mmol/L EGTA (final pH 7.5)]. The homogenate was centrifuged at 14,000 g for 30 min at 4° C. […] The Western blots were quantitated by densitometric analysis using Totallab® Nonlinear Dynamic Image analysis software (Nonlinear USA, Inc., Durham, N.C.). […]
# UVR-induced hyperplasia [9] = test: 17AAG effect on UVR-induced hyperplasia / epidermal thickness; assay type: in vivo; conditions: SKH1 mice, 500 nmol topical after each UVR exposure, 24 hr and 48 hr after fourth UVR, p<0.01
# Experimental: Groups of SKH1 mice were exposed to UVR (2 kJ/m2) three times (Monday, Wednesday, Friday, and Monday) weekly for 6 and 12 weeks. […] Mice were sacrificed at 24 hours after the last UVR treatment. […] For histochemistry, skin specimens were fixed in 10% neutral buffered formalin for 24 hours and embedded in paraffin.
# In this experiment, groups of SKH1 hairless mice were exposed either four times to UVR (4 kJ/m^2, Monday, Wednesday, Friday, and Monday) or for 6 and 12 weeks (2 kJ/m^2, thrice weekly, Monday, Wednesday, Friday). […] The mice were sacrificed at 24 hr and 48 hr after the fourth UVR exposure. The, dorsal skin was removed and fixed in 10% formalin for the analyses of epidermal hyperplasia.
# Hsp90β-PKCε interaction = Hsp90β-PKCε interaction (Mus musculus, UniProt P11499); conditions: 500 nmol topical before and after one UVR exposure, 24 hours post-UVR
# Experimental: PKCε-overexpressing transgenic mice (line 224) were exposed once to UVR (4 kJ/m2). […] Mice were sacrificed 24 hours post-UVR exposure. There were two mice per treatment point. Dorsal skin comprised excised, epidermal cell lysates prepared as described before (Aziz et al., 2007). Pooled epidermal cell lysate was analyzed for PKCε-Hsp90β interaction by immunoprecipitation/Western blot analyses (A).
# Epidermal lysates were prepared as for Western blot analysis. 100 μg of epidermal lysate was incubated with 10 μg of the indicated antibody. The total volume of the lysate/antibody mixture was adjusted to 1,000 μL with lysis buffer to allow for appropriate mixing and rotated at 4° C. overnight. Lysate/antibody mixture was then mixed with 50 μL of protein agarose A/G (sc-2003 Santa Cruz Biotechnology, Santa Cruz, Calif.) for 6 h. Lysate/antibody/protein A/G agarose mixture was then centrifuged at 8,000 g for 10 min to sediment the protein A/G agarose. Pellet was washed with 0.1% tween in PBS and then sedimented at 8,000 g for 10 min three times to wash any non-specific binding from the pellet. After three washes the immunoprecipite was then boiled for 5 min in 20 μL Protein Loading Buffer Blue (Cat # EC-886, National Diagnostics, Atlanta, Ga.). Immunoprecipitates were then treated as in Western Blot analysis above.
# [10] = in vivo; cited from earlier work
# human Hsp90 = conditions: cited from earlier work
# [11] = clinical trials; cited from earlier work
# [12] = both mice, 24 hr and 48 hr post-UVR
# [13] = SKH-1 hairless mice, 17AAG applied post each UVR exposure only
# [14] = FVB mice, single topical application, 6 hr after treatment
# [15] = 500 nmol topical after each UVR, 6 and 12 weeks
# Hsp90β-PKCε interaction, sequence (P11499 2-724 limits assumed): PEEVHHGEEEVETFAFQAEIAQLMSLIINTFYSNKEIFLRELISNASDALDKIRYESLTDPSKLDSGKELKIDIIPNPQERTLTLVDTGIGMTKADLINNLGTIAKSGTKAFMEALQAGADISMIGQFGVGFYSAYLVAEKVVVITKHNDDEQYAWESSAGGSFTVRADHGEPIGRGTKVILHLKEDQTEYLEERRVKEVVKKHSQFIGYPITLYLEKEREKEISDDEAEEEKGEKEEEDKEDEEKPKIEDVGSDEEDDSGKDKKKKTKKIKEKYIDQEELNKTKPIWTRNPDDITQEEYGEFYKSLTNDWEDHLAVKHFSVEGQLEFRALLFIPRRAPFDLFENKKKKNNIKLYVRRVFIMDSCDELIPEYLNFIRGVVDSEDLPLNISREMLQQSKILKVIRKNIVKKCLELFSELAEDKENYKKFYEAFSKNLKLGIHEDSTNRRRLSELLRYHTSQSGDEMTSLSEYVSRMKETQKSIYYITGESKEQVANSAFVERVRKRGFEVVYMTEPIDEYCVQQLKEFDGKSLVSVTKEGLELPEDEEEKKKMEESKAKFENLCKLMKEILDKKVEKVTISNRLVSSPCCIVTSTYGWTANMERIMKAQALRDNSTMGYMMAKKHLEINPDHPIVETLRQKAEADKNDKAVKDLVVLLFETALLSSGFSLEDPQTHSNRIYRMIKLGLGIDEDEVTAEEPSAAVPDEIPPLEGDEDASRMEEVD
compound,measurement,setting,value
CCNC(=O)c1noc(-c2cc(C(C)C)c(O)cc2O)c1-c1ccc(CN2CCOCC2)cc1 [NVPAU922],effect on UVR-induced hyperplasia (Table 3),UVR-induced hyperplasia [1]; [12],slightly negative effect
CC1(C)CC(=O)c2c(C(F)(F)F)nn(-c3ccc(C(N)=O)c(N[C@H]4CC[C@H](O)CC4)c3)c2C1 [SNX-2112],"Effect on Hyperplasia, Mice 2 or Slide 2, 24 Hr. post UVR",UVR-induced hyperplasia [1],+++
same,"Effect on Hyperplasia, Mice 2 or Slide 2, 48 Hr. post UVR",UVR-induced hyperplasia [1],+++
same,effect on UVR-induced hyperplasia (Table 3),"UVR-induced hyperplasia [1]; mouse 1, 24 hr and 48 hr post-UVR",no effect
same,effect on UVR-induced hyperplasia (Table 3),"UVR-induced hyperplasia [1]; mouse 2, 24 hr and 48 hr post-UVR",positive effect
"C=CCNC1=C2C[C@@H](C)C[C@H](OC)[C@H](O)[C@@H](C)/C=C(\C)[C@H](OC(N)=O)[C@@H](OC)/C=C\C=C(/C)C(=O)NC(=CC1=O)C2=O [17AAG, 17-allylamino-demethoxygeldanamycin]","Effect on Hyperplasia, Mice 1 or Slide 1, 24 Hr. post UVR",UVR-induced hyperplasia [1],+++
same,"Effect on Hyperplasia, Mice 1 or Slide 1, 48 Hr. post UVR",UVR-induced hyperplasia [1],+++
same,"Effect on Hyperplasia, Mice 2 or Slide 2, 24 Hr. post UVR",UVR-induced hyperplasia [1],+++
same,"Effect on Hyperplasia, Mice 2 or Slide 2, 48 Hr. post UVR",UVR-induced hyperplasia [1],+++
same,effect on UVR-induced hyperplasia (Table 3),UVR-induced hyperplasia [1]; [12],positive effect
same,Hsp70 level,"PKCε, Hsp90β, Hsp70",increase
same,Hsp90β and PKCε expression levels,"PKCε, Hsp90β, Hsp70",inhibition
same,UVR-induced development of SCC,"UVR-induced SCC [2]; PKCε overexpressing transgenic FVB/N mice, topical 500 nmol before and after each UVR, p=0.036",significantly inhibited
same,UVR-induced development of SCC,"UVR-induced SCC [2]; wild-type and PKCε overexpressing transgenic FVB/N mice, topical, p<0.01",significantly (p<0.01) inhibited
same,UVR-induced development of SCC,"UVR-induced SCC [2]; wild-type littermates (FVB/N), topical 500 nmol before and after each UVR, p=0.018",significantly inhibited
same,SCC incidence,"UVR-induced SCC [3]; SKH hairless mice, 500 nmol topical before and after each UVR exposure",significantly (p=0.038) inhibited
same,change in SCC latency,"UVR-induced SCC [3]; SKH hairless mice, 500 nmol topical before and after each UVR exposure (1.8 kJ/m2, three times weekly)",17 weeks
same,increase in SCC latency,UVR-induced SCC [3]; [13],20 weeks
same,inhibition of SCC incidence,UVR-induced SCC [3]; [13],> 50%
same,UVR-induced hyperplasia in uninvolved dorsal skin,"UVR-induced SCC [3]; end of SCC experiment, SKH hairless mice (FIG. 5C)",inhibition
same,"solubility in water or organic solvent, such as DMSO and ethanol, compared with Geldanamycin",[4],higher
same,half-life of topically applied 17AAG,"[5]; 500 nmol in DMSO:acetone 1:40 on skin, inferred from decline at 24 hours",short
same,epidermal 17AAG level,[5]; [14],detectable
same,serum 17AAG level,[5]; [14],detectable
same,serum and epidermal 17AAG levels,"[5]; SKH-1 and FVB mice, 24 hours post-17AAG treatment",lowest
same,time of maximum serum 17AAG level post topical application,"[5]; SKH-1 hairless mice, topical 500 nmol with three weekly UVR exposures for 25 weeks",1 h
same,higher affinity for Hsp90 derived from tumor cells compared to Hsp90 from normal cells,Hsp90,100 fold
same,"expression level of MMP-2, MMP-9, collagen IV",[6]; [15],decrease
same,expression of Hsp70,[6]; [15],increase
same,UVR-induced proliferative marker PCNA,[6]; topical,inhibited
same,Half-life,"[7]; administered intravenous or orally, literature reports",3 to 4 h
same,bioavailability,[7]; given intraperitoneally,excellent
same,bioavailability,[7]; given orally,modest
same,PKCε expression level,"[8]; 500 nmol topical before and after one UVR exposure, 24 hours post-UVR (FIG. 3A input)",did not appreciably affect
same,"Stat3, pStat3Ser727, pStat3Tyr705 and pAktser473 expression levels","[8]; topical before and after one UVR exposure, 24 hours post-UVR",inhibited
same,UVR-induced hyperplasia (epidermal thickness),UVR-induced hyperplasia [9],inhibited
same,UVR-induced PKCε-Hsp90β interaction,Hsp90β-PKCε interaction,suppressed
CCNC(=O)c1cc2c(-c3cc(OCCN4CCCC4)c(Cl)cc3Cl)nc(N)nc2[nH]1 [NPVBEP800],"Effect on Hyperplasia, Mice 1 or Slide 1, 24 Hr. post UVR",UVR-induced hyperplasia [1],+++
same,"Effect on Hyperplasia, Mice 1 or Slide 1, 48 Hr. post UVR",UVR-induced hyperplasia [1],+++
same,"Effect on Hyperplasia, Mice 2 or Slide 2, 24 Hr. post UVR",UVR-induced hyperplasia [1],+++
same,"Effect on Hyperplasia, Mice 2 or Slide 2, 48 Hr. post UVR",UVR-induced hyperplasia [1],+++
same,effect on UVR-induced hyperplasia (Table 3),UVR-induced hyperplasia [1]; [12],positive effect
CO[C@H]1/C=C\C=C(/C)C(=O)NC2=CC(=O)C(NCCN(C)C)=C(C[C@@H](C)C[C@H](OC)[C@H](O)[C@@H](C)/C=C(\C)[C@@H]1OC(N)=O)C2=O.Cl [17DMAG],oral bioavailability,[10],excellent
same,potency against human Hsp90 relative to 17-AAG,human Hsp90,~2 times
COC1=C2C[C@@H](C)C[C@H](OC)[C@H](O)[C@@H](C)/C=C(\C)[C@H](OC(N)=O)[C@@H](OC)/C=C\C=C(/C)C(=O)NC(=CC1=O)C2=O [Geldanamycin],liver toxicity,[11],liver toxicity

# Source: patent publication US20150031697A1, “METHOD FOR PREVENTING ULTRAVIOLET RADIATION-INDUCED CUTANEOUS DAMAGE AND DEVELOPMENT OF SQUAMOUS CELL CARCINOMAS” (WISCONSIN ALUMNI RESEARCH FOUNDATION, priority 2013, published 2015)
